For one experiment, the system named is Hepa 1-6 tumor cells. As to the kind of experiment: Syngeneic HEPA1-6 mouse liver tumor model. The following applies: 3 mg/kg p.o. BID, single agent; calculated on Day 22. In kind it is in vivo, C57BL/6 mice. An excerpt: This study evaluated the anti-tumor activity of Compound 7 in a mouse hepatoma model (NCR-A2A-032).
C57BL/6 female mice (8 weeks old) were inoculated subcutaneously in the right flank region with Hepa 1-6 tumor cells (on day 0). When tumor size reached about 50 mm^3 (on Day 4), mice were randomly allocated into experimental groups and treatment was initiated from day 4 to 25.

Experiment [1] deals with A20 mouse B-cell tumor cells. The experiment can be described thus: Syngeneic A20 experimental lymphoma model in combination with anti-PD-L1. It is filed as in vivo, BALB/c mice. The conditions noted are these: for TGI: day 23. As for the experimental part:
In this study the anti-tumor efficacy of Compound 7 was assessed either as single agent (monotherapy) or in combination with antagonist anti-Programmed Death-Ligand 1 (anti-PD-L1) monoclonal antibody (10F.9G2, BioXcell) in a model of B cell lymphoma model. (NCR-A2A-031).
BALB/c female mice (8 weeks old) were inoculated with A20 mouse B-cell tumor cells, subcutaneously in the right lower flank region (day 0). When tumors reached a size of about 50 mm^3 (Day 7), mice were allocated randomly into groups and treatment was initiated.

A further experiment relates to Human CD3+ T cells. As to the kind of experiment: Human T cell activation assay in presence of ATP (CFSE proliferation, TNFα AlphaLISA). The following applies: ATP 100 μM, 72 hours. (Alpha assays give light when donor and acceptor beads are brought close together.)
Another experiment has as its system CT26 mouse tumor cells. The experiment can be described thus: Syngeneic CT26 experimental colon cancer model in combination with Doxorubicin and/or anti-TIGIT mAb.
Another experiment has as its system MCA205 tumor cells. As to the kind of experiment: Syngeneic MCA205 experimental fibrosarcoma model in combination with Oxaliplatin. In kind it is in vivo, C57BL/6 mice. The following applies: Oxaliplatin 10 mg/kg i.p. single administration at D11, single agent; p=0.0202. The text has this: MCA205 tumor cells were inoculated subcutaneously into the right flank of C57BL/6 mice. When tumors reached an average size of about 80 mm^3, mice were randomly allocated into groups.

We go through 4 compounds from patent US11376255B2, “Thiocarbamate derivatives as A2A inhibitors, pharmaceutical composition thereof and combinations with anticancer agents” (iTeos Belgium SA, priority 2018, dated 2022).

Text for Human CD3+ T cells: PBMC and CD3^+ T cell isolation. Venous blood from healthy volunteers was obtained via ImmuneHealth (Centre Hospitalier Universitaire Tivoli, La Louviere, Belgium). Peripheral blood mononuclear cells (PBMCs) were collected by density gradient centrifugation, using SepMate-50 tubes (StemCell Technologies, Grenoble, France) and Lymphoprep (Axis-shield, Oslo, Norway) according to the manufacturer's instructions. PBMCs were stored in heat inactivated foetal bovine serum (hiFBS; Gibco, ThermoFisher Scientific, Merelbeke, Belgium) containing 10% DMSO in liquid nitrogen until required. PBMCs were thawed and washed into PBS (with 10% hiFBS) and labelled with 1 μM CFSE (Life Technologies) at room temperature for 5 minutes. Cells were washed into StemCell isolation buffer and CD3^+ T cells were isolated by immunomagnetic negative selection, using the EasySep Human T Cell Isolation Kit (StemCell Technologies) as per manufacturer's instructions.
Human T cell activation assay. […]
Cells were placed in a 37° C. humidified tissue culture incubator with 5% CO2 for 72 hours. […] Proliferation of CD4^+ T cells was assessed by determining CFSE dilution by flow cytometry using a BD LSRFortessa (BD Biosciences). Supernatants were later thawed and TNFα was quantified using the AlphaLISA Human TNFα Biotin-Free Detection Kit (AL325; Perkin-Elmer, Zaventem, Belgium), according to the manufacturer's instructions.

As to `C[S@@+]([O-])CCOc1cc(N2CCN(CCn3c(=O)sc4c3nc(N)n3nc(-c5ccco5)nc43)CC2)c(F)cc1F` (racemic) [Compound 7, (R,S)-5-amino-3-(2-(4-(2,4-difluoro-5-(2-(methylsulfinyl)ethoxy)phenyl)piperazin-1-yl)ethyl)-8-(furan-2-yl)thiazolo[5,4-e][1,2,4]triazolo[1,5-c]pyrimidin-2(3H)-one], the “tumor growth inhibition (TGI)” value in the experiment on Hepa 1-6 tumor cells is listed as 44%. For the same compound, the inhibition of tumour growth (TGI) in experiment [1] (Compound 7 0.3 mg/kg p.o. BID in combination with anti-PD-L1 mAb 5 mg/kg i.p. Q3D×3) is on record as 76%; in experiment [1] (Compound 7 3 mg/kg BID in combination with anti-PD-L1 mAb 5 mg/kg i.p. Q3D×3), 82%. Further, the “interaction with anti-PD-L1 mAb on growth of established A20 tumor (statistical analysis)” value in experiment [1] (combination with anti-PD-L1 mAb, p=0.017) is listed as “synergises with anti-PD-L1 mAb”.
With `CCN(CC)c1ncnc2c1ncn2[C@@H]1O[C@H](COP(=O)(O)OP(=O)(O)C(Br)(Br)P(=O)(O)O)[C@@H](O)[C@H]1O` [ARL67156], the “restoration of TNFα production inhibited by ATP” value in the experiment with Human CD3+ T cells (CD39 inhibitors ARL67156 100 μM and POM-1 10 μM without compound 8a) is “approximately 50%”. In addition, the “CD4+ T cell proliferation inhibited by ATP” value in the experiment with Human CD3+ T cells (combination of CD39 inhibitors ARL67156 100 μM and POM-1 10 μM) is reported as “almost completely rescued”.
As to `COc1cccc2c1C(=O)c1c(O)c3c(c(O)c1C2=O)C[C@@](O)(C(=O)CO)C[C@@H]3O[C@H]1C[C@H](N)[C@H](O)[C@H](C)O1` [Doxorubicin], the “anti-tumor efficacy compared to anti-TIGIT mAb or Doxorubicin stand-alone” value with CT26 mouse tumor cells (Doxorubicin 6 mg/kg in combination with anti-TIGIT mAb 1 mg/kg, p=0.008 and p=0.0002) is “improved anti-tumor efficacy”. Further, the tumor growth entry with CT26 mouse tumor cells (Doxorubicin 6 mg/kg on day 10 and 14, single agent, p=0.14) is recorded as “no significant effect on tumor growth”. In addition, in the experiment on CT26 mouse tumor cells (anti-TIGIT+Doxorubicin combination, out of 10 mice), the “complete responders (CR)” value is “one”.
With `O=C1[O][Pt]2([NH][C@@H]3CCCC[C@H]3[NH]2)[O]C1=O` [Oxaliplatin], the “tumor growth compared to Vehicle” value with MCA205 tumor cells is given as “significant delay in tumor growth”.

A word on the TGI: it is the reduction of tumour growth relative to the control group.
